Numbered stars: 1 amine (or outer) side, 2 acyl side, 3 side chain; on linkers, the order of the positions; unused ones are H or OH. Bridge positions count the residues as written; N and C are the ends. Square brackets hold non-standard residues; d marks the D form. Peptide text beside a SMILES is read from it. * marks the point of attachment. DOTA = O=C(O)CN1CCN(CC(=O)O)CCN(CC(=O)*)CCN(CC(=O)O)CC1; Trp(5-Br) = N[C@@H](Cc1c[nH]c2ccc(Br)cc12)C(=O)O; Phe(3-Cl) = N[C@@H](Cc1cccc(Cl)c1)C(=O)O; Phe(4-Cl) = N[C@@H](Cc1ccc(Cl)cc1)C(=O)O; Arg(Me) = CNC(=N)NCCC[C@H](N)C(=O)O; Lys(Me2) = CN(C)CCCC[C@H](N)C(=O)O; X1 = O=C(CC1CCN([*:1])CC1)[*:2]; Cit = NC(=O)NCCC[C@H](N)C(=O)O; Lys(Me) = CNCCCC[C@H](N)C(=O)O; Tle = CC(C)(C)[C@H](N)C(=O)O; Nle = CCCC[C@H](N)C(=O)O; Aib = CC(C)(N)C(=O)O; CO = O=C([*:1])[*:2]; NHBu = CCCCN*

The values that follow come from patent US20260083865A1, “PROSTATE SPECIFIC MEMBRANE ANTIGEN (PSMA) LIGANDS AND USE THEREOF” (priority 2022, published 2026).

The target in test [1] is T1, PSMA-expressing C4-2 cells (Homo sapiens, UniProt Q04609).
T1 construct: PSMA-expressing C4-2 cells (ATCC, Cat. No. CRL-3314) were cultured in RPMI-1640; host or cells: C4-2 cells
Nature of the test: FACS binding assay (competition with 50 nM PSM-0183). As to conditions: FACS binding, C4-2 cells, competition with 50 nM PSM-0183; category; read-out: pIC50 [C4-2] CAT (converted). A digest of the protocol: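 C4-2 cells were incubated 1 h at 4 °C with 50 nM AF488-labelled peptide PSM-0183 plus increasing test compound concentrations, then washed twice in ice-cold buffer. Median fluorescence in the AF488 channel was read by flow cytometry. IC50/pIC50 was derived by 4PL fitting of MFI versus concentration.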

The target in test [2] is T2, Fc-fusion protein of human PSMA (hPSMA-Fc) (Homo sapiens, UniProt Q04609).
T2 construct: purchased Acro Biosystems PSA-H5264
The experiment in a line: Surface plasmon resonance assay (Biacore T200, single cycle kinetic). It is filed as binding. The note with it: SPR, hPSMA-Fc, single cycle kinetic, 25° C.; category; read-out: pKD CAT (converted). A digest of the protocol: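 hPSMA-Fc was captured (~1000 RU) on an Fc-binding-peptide CM5 chip, and compounds were run in single cycle kinetic mode at 25° C in HBST with 0.1% DMSO. Double-blank-corrected sensorgrams were fitted to a 1:1 Langmuir model to give KD, reported as pKD.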

T2 sequence (Q04609 44-750 limits assumed): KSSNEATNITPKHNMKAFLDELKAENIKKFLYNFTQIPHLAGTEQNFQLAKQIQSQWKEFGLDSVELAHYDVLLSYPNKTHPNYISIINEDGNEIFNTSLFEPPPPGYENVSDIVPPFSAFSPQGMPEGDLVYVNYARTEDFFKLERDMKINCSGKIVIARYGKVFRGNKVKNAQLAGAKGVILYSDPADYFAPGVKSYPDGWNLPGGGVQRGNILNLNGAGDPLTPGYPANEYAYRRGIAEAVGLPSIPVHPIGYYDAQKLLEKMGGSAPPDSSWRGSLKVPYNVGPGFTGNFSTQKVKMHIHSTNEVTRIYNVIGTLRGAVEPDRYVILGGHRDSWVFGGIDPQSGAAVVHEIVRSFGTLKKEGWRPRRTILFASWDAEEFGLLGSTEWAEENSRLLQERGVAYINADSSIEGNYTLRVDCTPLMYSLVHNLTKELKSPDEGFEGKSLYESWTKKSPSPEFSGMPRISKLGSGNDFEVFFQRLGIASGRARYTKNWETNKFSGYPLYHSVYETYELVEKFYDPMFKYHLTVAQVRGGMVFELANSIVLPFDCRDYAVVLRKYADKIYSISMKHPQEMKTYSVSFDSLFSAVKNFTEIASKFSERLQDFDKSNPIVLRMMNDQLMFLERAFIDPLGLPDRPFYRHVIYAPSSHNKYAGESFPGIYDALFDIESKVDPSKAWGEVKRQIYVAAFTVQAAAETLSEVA
T1 sequence (Q04609 whole entry): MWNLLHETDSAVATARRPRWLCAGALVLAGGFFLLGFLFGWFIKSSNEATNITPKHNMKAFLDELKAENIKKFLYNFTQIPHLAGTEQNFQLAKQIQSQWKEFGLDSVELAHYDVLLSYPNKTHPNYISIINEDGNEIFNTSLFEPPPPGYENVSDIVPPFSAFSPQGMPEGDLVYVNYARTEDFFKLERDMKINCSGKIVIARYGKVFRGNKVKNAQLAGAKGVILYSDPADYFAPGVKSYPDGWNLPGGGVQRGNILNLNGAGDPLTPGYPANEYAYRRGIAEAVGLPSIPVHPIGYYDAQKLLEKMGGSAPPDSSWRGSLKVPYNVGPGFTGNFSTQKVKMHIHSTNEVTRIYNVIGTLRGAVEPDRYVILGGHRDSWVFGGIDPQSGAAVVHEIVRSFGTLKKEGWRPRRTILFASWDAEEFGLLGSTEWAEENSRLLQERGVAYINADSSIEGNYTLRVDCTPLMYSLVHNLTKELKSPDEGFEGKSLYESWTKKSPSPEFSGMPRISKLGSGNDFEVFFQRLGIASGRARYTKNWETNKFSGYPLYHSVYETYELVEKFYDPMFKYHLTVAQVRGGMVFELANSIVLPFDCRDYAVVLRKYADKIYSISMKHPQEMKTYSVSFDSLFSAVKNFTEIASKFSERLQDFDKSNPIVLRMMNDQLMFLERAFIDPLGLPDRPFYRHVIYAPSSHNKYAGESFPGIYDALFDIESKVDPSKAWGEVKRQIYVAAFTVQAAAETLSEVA

For `CNC(=N)NCCC[C@@H]1NC(=O)[C@H](CCCCN(C)C)NC(=O)[C@@H](NC(=O)[C@H](Cc2ccc(Cl)cc2)NC(=O)C(C)(C)NC(=O)[C@@H](NC(=O)CC2CCN(C(=O)CN3CCN(CC(=O)O)CCN(CC(=O)O)CCN(CC(=O)O)CC3)CC2)[C@@H](C)O)CSSC[C@@H](C(=O)N[C@H](C(=O)N[C@H](C(N)=O)[C@@H](C)O)C(C)(C)C)NC(=O)[C@H](CC(N)=O)NC(=O)C(C)(C)NC1=O` [PSM-0203, DOTA-Cmp-Thr-Aib-Pcf-[Cys-KMe2-Arg(Me)-Aib-Asn-Cys]-Tle-Thr-NH2] ({DOTA}-[X1]T[Aib][Phe(4-Cl)]C[Lys(Me2)][Arg(Me)][Aib]NC[Tle]T-NH2; disulfide 5-10), in test [1], the IC50 was less than 200 nM. Besides, the Kd in test [2] was less than 12.6 nM.
For the compound `CCCCNC(=O)N[C@H](C(=O)NC(C)(C)C(=O)N[C@@H](Cc1ccc(Cl)cc1)C(=O)N[C@H]1CSSC[C@@H](C(=O)N[C@H](C(=O)N[C@H](C(=O)N2CCC(CC(=O)N[C@H](CCCCNC(=O)CN3CCN(CC(=O)O)CCN(CC(=O)O)CCN(CC(=O)O)CC3)C(N)=O)CC2)[C@@H](C)O)C(C)(C)C)NC(=O)[C@H](CC(N)=O)NC(=O)C(C)(C)NC(=O)[C@H](CCCNC(N)=O)NC(=O)[C@H](CCCCN)NC1=O)[C@@H](C)O` [PSM-0204, nBuCAyl-Thr-Aib-Pcf-[Cys-Lys-Cit-Aib-Asn-Cys]-Tle-Thr-Cmp-lys(DOTA)-NH2] ({NHBu-CO}-T[Aib][Phe(4-Cl)]CK[Cit][Aib]NC[Tle]T[X1][dK](DOTA)-NH2; disulfide 4-9), in test [1], the IC50 is less than 200 nM. Moreover, the Kd in test [2] was 12.6 to 126 nM.
As for `CCCC[C@@H]1NC(=O)[C@@H](NC(=O)[C@H](Cc2ccc(Cl)cc2)NC(=O)C(C)(C)NC(=O)[C@@H](NC(C)=O)[C@@H](C)O)CSSC[C@@H](C(=O)N[C@H](C(=O)N[C@H](C(N)=O)[C@@H](C)O)C(C)(C)C)NC(=O)[C@H](CC(N)=O)NC(=O)C(C)(C)NC(=O)[C@H](CCCNC(=N)N)NC1=O` [PSM-0205, Ac-Thr-Aib-Pcf-[Cys-Nle-Arg-Aib-Asn-Cys]-Tle-Thr-NH2] (Ac-T[Aib][Phe(4-Cl)]C[Nle]R[Aib]NC[Tle]T-NH2; disulfide 4-9), the IC50 in test [1] was less than 200 nM. The Kd in test [2] is less than 12.6 nM.
With `CNCCCC[C@@H]1NC(=O)[C@@H](NC(=O)[C@H](Cc2c[nH]c3ccc(Br)cc23)NC(=O)C(C)(C)NC(=O)[C@@H](NC(=O)CC2CCN(C(=O)CN3CCN(CC(=O)O)CCN(CC(=O)O)CCN(CC(=O)O)CC3)CC2)[C@@H](C)O)CSSC[C@@H](C(=O)N[C@H](C(=O)N[C@H](C(N)=O)[C@@H](C)O)C(C)(C)C)NC(=O)[C@H](CC(N)=O)NC(=O)C(C)(C)NC(=O)[C@H](CCCNC(=N)NC)NC1=O` [PSM-0206, DOTA-Cmp-Thr-Aib-5Brw-[Cys-Lys(Me)-Arg(Me)-Aib-Asn-Cys]-Tle-Thr-NH2] ({DOTA}-[X1]T[Aib][Trp(5-Br)]C[Lys(Me)][Arg(Me)][Aib]NC[Tle]T-NH2; disulfide 5-10), the IC50 in test [1] was 1260 to 3160 nM. Moreover, the Kd in test [2] is greater than 501 nM.
`CCCCNC(=O)N[C@H](C(=O)NC(C)(C)C(=O)N[C@@H](Cc1cccc(Cl)c1)C(=O)N[C@H]1CSSC[C@@H](C(=O)N[C@H](C(=O)N[C@H](C(=O)N2CCC(CC(=O)N[C@H](CCCCNC(=O)CN3CCN(CC(=O)O)CCN(CC(=O)O)CCN(CC(=O)O)CC3)C(N)=O)CC2)[C@@H](C)O)C(C)(C)C)NC(=O)[C@H](CC(N)=O)NC(=O)C(C)(C)NC(=O)[C@H](CCCNC(N)=O)NC(=O)[C@H](CCCCN)NC1=O)[C@@H](C)O` [PSM-0207, nBuCAyl-Thr-Aib-Mcf-[Cys-Lys-Cit-Aib-Asn-Cys]-Tle-Thr-Cmp-lys(DOTA)-NH2] ({NHBu-CO}-T[Aib][Phe(3-Cl)]CK[Cit][Aib]NC[Tle]T[X1][dK](DOTA)-NH2; disulfide 4-9): in test [1], the IC50 is less than 200 nM. Besides, in test [2], the Kd was 12.6 to 126 nM.
